Assay results taken from US8940909B2, “Indicator platform” (Biosynth AG, priority 2009, dated 2015).

What was measured:
Assay in all cases: IO staining of colonies of beta-D-galactosidase positive/negative bacteria (Table IVb)
Format in all cases: cell-based
Escherichia coli 270 = conditions: Escherichia coli strain 270, b-gal +; 24 h on Nutrient Agar, 150 mg/l indicator, 100 mg/l IPTG
[1] = system: Klebsiella pneumoniae 164; conditions: Klebsiella pneumoniae strain 164, b-gal +; 24 h on Nutrient Agar, 150 mg/l indicator, 100 mg/l IPTG; for C: Color of colonies: key: −: absent; +/−: weak; +: strong; ++: very strong; for G: Growth of colonies: key: −: absent; +/−: weak; +: strong; ++: very strong
[2] = system: Staphylococcus intermedius 31; conditions: Staphylococcus intermedius strain 31, b-gal +; 24 h on Nutrient Agar, 150 mg/l indicator, 100 mg/l IPTG
[3] = system: Pseudomonas aeruginosa 168; conditions: Pseudomonas aeruginosa strain 168, b-gal −, 24 h on Nutrient Agar, 150 mg/l indicator, 100 mg/l IPTG; for F: Fluorescence of colonies: footnote 1: blue autofluorescence; for C: Color of colonies: key: −: absent; +/−: weak; +: strong; ++: very strong; for G: Growth of colonies: key: −: absent; +/−: weak; +: strong; ++: very strong
Escherichia coli 61 = conditions: Escherichia coli strain 61, b-gal +; 24 h on Nutrient Agar, 150 mg/l indicator, 100 mg/l IPTG
[4] = system: Salmonella enteritidis 43; conditions: Salmonella enteritidis strain 43, b-gal −; 24 h on Nutrient Agar, 150 mg/l indicator, 100 mg/l IPTG; note: key: −: absent; +/−: weak; +: strong; ++: very strong
[5] = system: Shigella dysenteriae Serovar 1 131; conditions: Shigella dysenteriae Serovar 1 strain 131, b-gal +/−; 24 h on Nutrient Agar, 150 mg/l indicator, 100 mg/l IPTG
Citrobacter freundii 181 = conditions: Citrobacter freundii strain 181, b-gal +; 24 h on Nutrient Agar, 150 mg/l indicator, 100 mg/l IPTG
Salmonella bongori 81 = conditions: Salmonella bongori strain 81, b-gal +; 24 h on Nutrient Agar, 150 mg/l indicator, 100 mg/l IPTG
[6] = system: Enterobacter aerogenes 242; conditions: Enterobacter aerogenes strain 242, b-gal +; 24 h on Nutrient Agar, 150 mg/l indicator, 100 mg/l IPTG; for C: Color of colonies: key: −: absent; +/−: weak; +: strong; ++: very strong; for G: Growth of colonies: key: −: absent; +/−: weak; +: strong; ++: very strong
Shigella sonnei 133 = conditions: Shigella sonnei strain 133, b-gal +/−; 24 h on Nutrient Agar, 150 mg/l indicator, 100 mg/l IPTG
Bacillus subtilis 65 = conditions: Bacillus subtilis strain 65, b-gal −; 24 h on Nutrient Agar, 150 mg/l indicator, 100 mg/l IPTG
[7] = system: Listeria monocytogenes (4b) 290; conditions: Listeria monocytogenes (4b) strain 290, b-gal −; 24 h on Nutrient Agar, 150 mg/l indicator, 100 mg/l IPTG; for C: Color of colonies: key: −: absent; +/−: weak; +: strong; ++: very strong; for F: Fluorescence of colonies: key: −: absent; +/−: weak; +: strong; ++: very strong
Enterobacter cloacae 245 = conditions: Enterobacter cloacae strain 245, b-gal +; 24 h on Nutrient Agar, 150 mg/l indicator, 100 mg/l IPTG
[8] = system: Staphylococcus saprophyticus 273; conditions: Staphylococcus saprophyticus strain 273, b-gal +; 24 h on Nutrient Agar, 150 mg/l indicator, 100 mg/l IPTG; for G: Growth of colonies: key: −: absent; +/−: weak; +: strong; ++: very strong
[9] = system: Streptococcus agalactiae 195; conditions: Streptococcus agalactiae strain 195, b-gal −; 24 h on Nutrient Agar, 150 mg/l indicator, 100 mg/l IPTG; for C: Color of colonies: key: −: absent; +/−: weak; +: strong; ++: very strong; for F: Fluorescence of colonies: key: −: absent; +/−: weak; +: strong; ++: very strong
Shigella boydii 135 = conditions: Shigella boydii strain 135, b-gal −; 24 h on Nutrient Agar, 150 mg/l indicator, 100 mg/l IPTG
Staphylococcus aureus 2 = conditions: Staphylococcus aureus strain 2, b-gal −, 24 h on Nutrient Agar, 150 mg/l indicator, 100 mg/l IPTG; for C: Color of colonies: footnote 2: S. aureus natural color
Serratia marcescens 40 = conditions: Serratia marcescens strain 40, b-gal +; 24 h on Nutrient Agar, 150 mg/l indicator, 100 mg/l IPTG
[10] = system: Escherichia coli (O157:H7) 60; conditions: Escherichia coli (O157:H7) strain 60, b-gal +; 24 h on Nutrient Agar, 150 mg/l indicator, 100 mg/l IPTG
Aeromonas hydrophila 292 = conditions: Aeromonas hydrophila strain 292, b-gal +; 24 h on Nutrient Agar, 150 mg/l indicator, 100 mg/l IPTG
Salmonella illa 73 = conditions: Salmonella illa strain 73, b-gal +; 24 h on Nutrient Agar, 150 mg/l indicator, 100 mg/l IPTG
[11] = system: Yersinia enterocolitica 175; conditions: Yersinia enterocolitica strain 175, b-gal +/−; 24 h on Nutrient Agar, 150 mg/l indicator, 100 mg/l IPTG; for G: Growth of colonies: key: −: absent; +/−: weak; +: strong; ++: very strong

SMILES: COc1ccc(C(=O)c2ccccc2-n2cc(O[C@@H]3O[C@H](CO)[C@H](O)[C@H](O)[C@H]3O)c3ccccc32)c(OC)c1 [Indicator I25a, 1-[2-(2,4-Dimethoxybenzoyl)phenyl]-1H-indol-3-yl-beta-D-galactopyranoside]
- C: Color of colonies (Escherichia coli 270): ++
- F: Fluorescence of colonies (Escherichia coli 270): ++
- G: Growth of colonies (Escherichia coli 270): +
- C: Color of colonies [1]: +
- F: Fluorescence of colonies [1]: +
- G: Growth of colonies [1]: +
- C: Color of colonies [2]: +/−
- F: Fluorescence of colonies [2]: +/−
- G: Growth of colonies [2]: +
- C: Color of colonies [3]: −
- G: Growth of colonies [3]: +
- F: Fluorescence of colonies [3]: +^1
- C: Color of colonies (Escherichia coli 61): ++
- F: Fluorescence of colonies (Escherichia coli 61): ++
- G: Growth of colonies (Escherichia coli 61): +
- C: Color of colonies [4]: −
- F: Fluorescence of colonies [4]: −
- G: Growth of colonies [4]: +
- C: Color of colonies [5]: −
- F: Fluorescence of colonies [5]: −
- G: Growth of colonies [5]: +
- C: Color of colonies (Citrobacter freundii 181): +
- F: Fluorescence of colonies (Citrobacter freundii 181): +
- G: Growth of colonies (Citrobacter freundii 181): +
- C: Color of colonies (Salmonella bongori 81): +/−
- F: Fluorescence of colonies (Salmonella bongori 81): +/−
- G: Growth of colonies (Salmonella bongori 81): +
- C: Color of colonies [6]: +
- F: Fluorescence of colonies [6]: +
- G: Growth of colonies [6]: +
- C: Color of colonies (Shigella sonnei 133): +
- F: Fluorescence of colonies (Shigella sonnei 133): ++
- G: Growth of colonies (Shigella sonnei 133): +
- C: Color of colonies (Bacillus subtilis 65): −
- F: Fluorescence of colonies (Bacillus subtilis 65): −
- G: Growth of colonies (Bacillus subtilis 65): +
- C: Color of colonies [7]: −
- F: Fluorescence of colonies [7]: −
- G: Growth of colonies [7]: +/−
- C: Color of colonies (Enterobacter cloacae 245): +
- F: Fluorescence of colonies (Enterobacter cloacae 245): ++
- G: Growth of colonies (Enterobacter cloacae 245): +
- C: Color of colonies [8]: +/−
- F: Fluorescence of colonies [8]: +/−
- G: Growth of colonies [8]: +
- C: Color of colonies [9]: −
- F: Fluorescence of colonies [9]: −
- G: Growth of colonies [9]: +/−
- C: Color of colonies (Shigella boydii 135): −
- F: Fluorescence of colonies (Shigella boydii 135): −
- G: Growth of colonies (Shigella boydii 135): +
- F: Fluorescence of colonies (Staphylococcus aureus 2): −
- G: Growth of colonies (Staphylococcus aureus 2): +
- C: Color of colonies (Staphylococcus aureus 2): +/−^2
- C: Color of colonies (Serratia marcescens 40): +
- F: Fluorescence of colonies (Serratia marcescens 40): +/−
- G: Growth of colonies (Serratia marcescens 40): +
- C: Color of colonies [10]: ++
- F: Fluorescence of colonies [10]: ++
- G: Growth of colonies [10]: +
- C: Color of colonies (Aeromonas hydrophila 292): +
- F: Fluorescence of colonies (Aeromonas hydrophila 292): +/−
- G: Growth of colonies (Aeromonas hydrophila 292): +
- C: Color of colonies (Salmonella illa 73): −
- F: Fluorescence of colonies (Salmonella illa 73): −
- G: Growth of colonies (Salmonella illa 73): +
- C: Color of colonies [11]: −
- F: Fluorescence of colonies [11]: −
- G: Growth of colonies [11]: +

SMILES: CC(=O)c1ccccc1-n1cc(O[C@@H]2O[C@H](CO)[C@H](O)[C@H](O)[C@H]2O)c2ccc(Cl)cc21 [Indicator I16a, 1-(2-Acetylphenyl)-6-chloro-1H-indol-3-yl-beta-D-galactopyranoside]
- C: Color of colonies (Escherichia coli 270): +
- F: Fluorescence of colonies (Escherichia coli 270): +
- G: Growth of colonies (Escherichia coli 270): +
- C: Color of colonies [1]: +
- F: Fluorescence of colonies [1]: +
- G: Growth of colonies [1]: +
- C: Color of colonies [2]: +/−
- F: Fluorescence of colonies [2]: +/−
- G: Growth of colonies [2]: +/−
- C: Color of colonies [3]: −
- G: Growth of colonies [3]: +
- F: Fluorescence of colonies [3]: +^1
- C: Color of colonies (Escherichia coli 61): +
- F: Fluorescence of colonies (Escherichia coli 61): +
- G: Growth of colonies (Escherichia coli 61): +
- C: Color of colonies [4]: −
- F: Fluorescence of colonies [4]: −
- G: Growth of colonies [4]: +
- C: Color of colonies [5]: −
- F: Fluorescence of colonies [5]: −
- G: Growth of colonies [5]: +
- C: Color of colonies (Citrobacter freundii 181): +
- F: Fluorescence of colonies (Citrobacter freundii 181): +
- G: Growth of colonies (Citrobacter freundii 181): +
- C: Color of colonies (Salmonella bongori 81): +/−
- F: Fluorescence of colonies (Salmonella bongori 81): +/−
- G: Growth of colonies (Salmonella bongori 81): +
- C: Color of colonies [6]: +
- F: Fluorescence of colonies [6]: +
- G: Growth of colonies [6]: +
- C: Color of colonies (Shigella sonnei 133): +
- F: Fluorescence of colonies (Shigella sonnei 133): +
- G: Growth of colonies (Shigella sonnei 133): +
- C: Color of colonies (Bacillus subtilis 65): −
- F: Fluorescence of colonies (Bacillus subtilis 65): −
- G: Growth of colonies (Bacillus subtilis 65): +
- C: Color of colonies [7]: −
- F: Fluorescence of colonies [7]: −
- G: Growth of colonies [7]: +/−
- C: Color of colonies (Enterobacter cloacae 245): +
- F: Fluorescence of colonies (Enterobacter cloacae 245): +
- G: Growth of colonies (Enterobacter cloacae 245): +
- C: Color of colonies [8]: +
- F: Fluorescence of colonies [8]: +
- G: Growth of colonies [8]: +
- C: Color of colonies [9]: −
- F: Fluorescence of colonies [9]: −
- G: Growth of colonies [9]: +/−
- C: Color of colonies (Shigella boydii 135): −
- F: Fluorescence of colonies (Shigella boydii 135): −
- G: Growth of colonies (Shigella boydii 135): +
- F: Fluorescence of colonies (Staphylococcus aureus 2): −
- G: Growth of colonies (Staphylococcus aureus 2): +/−
- C: Color of colonies (Staphylococcus aureus 2): −
- C: Color of colonies (Serratia marcescens 40): +
- F: Fluorescence of colonies (Serratia marcescens 40): +
- G: Growth of colonies (Serratia marcescens 40): +
- C: Color of colonies [10]: +
- F: Fluorescence of colonies [10]: +
- G: Growth of colonies [10]: +
- C: Color of colonies (Aeromonas hydrophila 292): +
- F: Fluorescence of colonies (Aeromonas hydrophila 292): +
- G: Growth of colonies (Aeromonas hydrophila 292): +
- C: Color of colonies (Salmonella illa 73): −
- F: Fluorescence of colonies (Salmonella illa 73): −
- G: Growth of colonies (Salmonella illa 73): +
- C: Color of colonies [11]: −
- F: Fluorescence of colonies [11]: −
- G: Growth of colonies [11]: +
